Reference: the NIST ThermoML archive (doi:10.1021/je060271a)

Conditions: 323.15 K, Liquid, Vibrating tube method

CCCCCCCC(=O)OCC(COC(=O)CCCCCCC)(COC(=O)CCCCCCC)COC(=O)CCCCCCC [pentaerythritol tetraoctanoate]
Conditions	mass density [kg/m3]
26616 kPa	957.5
26661 kPa	957.4
26699 kPa	957.6
26737 kPa	957.5
26782 kPa	957.5
26820 kPa	957.5
26866 kPa	957.6
26904 kPa	957.6
26944 kPa	957.7
26985 kPa	957.7
27024 kPa	957.7
27070 kPa	957.8
27109 kPa	957.9
27407 kPa	957.9
27548 kPa	957.8
27601 kPa	958
27639 kPa	958.1
27665 kPa	958.1
27687 kPa	958.2
27713 kPa	958.1
27735 kPa	958.1
27761 kPa	958.2
27784 kPa	958.1
27806 kPa	958.3
27832 kPa	958.2
27854 kPa	958.3
27877 kPa	958.2
27899 kPa	958.2
27926 kPa	958.2
27943 kPa	958.3
27970 kPa	958.3
28091 kPa	958.4
28114 kPa	958.4
28142 kPa	958.4
28164 kPa	958.3
28188 kPa	958.3
28216 kPa	958.4
28238 kPa	958.4
28262 kPa	958.4
28284 kPa	958.5
28312 kPa	958.6
28336 kPa	958.5
28358 kPa	958.6
28386 kPa	958.5
28410 kPa	958.5
28434 kPa	958.4
28461 kPa	958.5
28484 kPa	958.5
28508 kPa	958.6
28531 kPa	958.6
28559 kPa	958.6
28583 kPa	958.6
28607 kPa	958.7
28635 kPa	958.6
28658 kPa	958.7
28687 kPa	958.9
28711 kPa	958.7
28734 kPa	958.8
28758 kPa	958.6
28787 kPa	958.8
28812 kPa	958.8
28836 kPa	958.8
28860 kPa	958.9
28889 kPa	958.7
28913 kPa	958.9
28937 kPa	958.8
28966 kPa	958.9
28990 kPa	958.9
29019 kPa	958.9
29043 kPa	958.8
29068 kPa	958.9
29098 kPa	958.9
29122 kPa	958.9
29148 kPa	958.9
29173 kPa	959.1
29198 kPa	959
29218 kPa	959
29248 kPa	959
29273 kPa	959
29302 kPa	959.1
29333 kPa	959.1
29357 kPa	959.1
29383 kPa	959.1
29412 kPa	959.1
29438 kPa	959.2
29462 kPa	959.2
29494 kPa	959.2
29520 kPa	959.1
29545 kPa	959.2
29571 kPa	959.2
29601 kPa	959.1
29627 kPa	959.3
29652 kPa	959.2
29682 kPa	959.4
29708 kPa	959.2
29733 kPa	959.3
29764 kPa	959.3
29790 kPa	959.3
29816 kPa	959.3
29847 kPa	959.3
29873 kPa	959.4
29898 kPa	959.4
29924 kPa	959.4
29956 kPa	959.4
29982 kPa	959.4
30013 kPa	959.4
30040 kPa	959.4
30060 kPa	959.5
30087 kPa	959.5
30118 kPa	959.5
30150 kPa	959.6
30181 kPa	959.6
30209 kPa	959.5
30235 kPa	959.6
30267 kPa	959.6
30294 kPa	959.6
30321 kPa	959.6
30347 kPa	959.6
30380 kPa	959.7
30407 kPa	959.7
30434 kPa	959.6
30466 kPa	959.7
30493 kPa	959.7
30521 kPa	959.7
30553 kPa	959.8
30581 kPa	959.6
30608 kPa	959.8
30635 kPa	959.8
30668 kPa	959.8
30696 kPa	959.8
30728 kPa	959.8
30756 kPa	959.9
30778 kPa	959.9
30806 kPa	959.9
30834 kPa	960
30862 kPa	959.9
30906 kPa	960
30934 kPa	959.8
30962 kPa	959.9
30991 kPa	960
31025 kPa	960
31053 kPa	959.9
31086 kPa	960
31115 kPa	960
31143 kPa	959.9
31171 kPa	960.1
31205 kPa	960.1
31233 kPa	960.2
